Reference: patent publication US20120021434A1, “METHOD FOR TREATING B CELL REGULATED AUTOIMMUNE DISORDERS” (Synta Pharmaceuticals Corp., priority 2005, published 2012)

Tests used:
[1] = molecular target: T1, c-Rel (Homo sapiens, UniProt Q04864); test: Western blot of THP-1 nuclear extracts: c-Rel; format: cell-based; conditions: of the transcription factors analyzed
T1 construct: a western blot assay of THP1 nuclear c-Rel, p50 and p65 proteins was carried out; endogenous in cells; host or cells: THP-1; Jurkat
T1 sequence (Q04864 1-619): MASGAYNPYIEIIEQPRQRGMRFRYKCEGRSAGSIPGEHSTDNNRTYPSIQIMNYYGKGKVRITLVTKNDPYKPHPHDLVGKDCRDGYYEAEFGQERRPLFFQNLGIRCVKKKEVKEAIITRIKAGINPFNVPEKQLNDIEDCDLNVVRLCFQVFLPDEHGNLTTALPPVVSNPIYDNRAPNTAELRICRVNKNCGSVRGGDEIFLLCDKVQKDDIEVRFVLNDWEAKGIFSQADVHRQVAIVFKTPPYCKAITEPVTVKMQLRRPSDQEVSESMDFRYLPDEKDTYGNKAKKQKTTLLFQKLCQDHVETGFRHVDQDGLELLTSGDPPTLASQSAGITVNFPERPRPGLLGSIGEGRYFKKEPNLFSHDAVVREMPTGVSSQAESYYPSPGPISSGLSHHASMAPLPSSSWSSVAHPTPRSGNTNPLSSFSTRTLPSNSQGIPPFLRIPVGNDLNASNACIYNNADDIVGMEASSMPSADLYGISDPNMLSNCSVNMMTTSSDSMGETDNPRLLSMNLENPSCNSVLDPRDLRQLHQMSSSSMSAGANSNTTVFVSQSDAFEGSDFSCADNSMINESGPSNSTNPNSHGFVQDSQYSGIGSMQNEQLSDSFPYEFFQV
Experimental: The THP-1 cell, Jurkat cell and RAW264.7 cell line were obtained from American Type Culture Collection (Manassas, Va.). The THP-1 Jurkat cells were cultured in RPMI 1640 (ATCC, Manassas, Va.), supplemented with 10% FCS (ATCC, Manassas, Va.), and 1% penicillin/Streptomycin (Gibco-BRL, New York, N.Y.). The RAW264.7 cells were cultured in DMEM (ATCC, Manassas, Va.) supplemented with 10% FCS (ATCC, Manassas, Va.), and 1% penicillin/Streptomycin (Gibco-BRL, New York, N.Y.). The cells were stimulated with human or murine recombinant IFNγ (100 ng/ml) for 10 h followed by LPS (1 μg/ml) or SAC (0.025%) CpG ([…]) in the presence or absence of Compound 50 at different concentrations for an additional incubation.
THP-1 cells were suspended in 20 volumes of buffer A containing 10 mM KCl, 10 mM HEPES (pH 7.9), 1 mM MgCl2, 1 mM dithiothreitol (DTT), 0.1% Nonidet p40 (NP-40), and 0.5 mM phenylmethylsulfonyl fluoride (PMSF) and homogenized and centrifuged at 10,000 rpm at 4C afor 5 min. Nuclear pellets were then suspended in buffer C containing 400 mM NaCl, 20 mM HEPES 9, pH 7.9), 15 mM MgCl2, 0.2 mM EDTA, 1 mM DTT, 25% glycerol, 1 mM PMSF, and 10 ug of leupeptin, 20 ug of pepstatin, and 10 ug/ml antipain, incubated for 30 min at 4C, and centrifuged at 14,000 rpm for 20 min. The supernatants were dialyzed against buffer D containing 100 mM NaCl, 20 mM HEPES (pH 7.9), 20% glycerol, 1 mM PMSF, and 1 mM DTT.
The 10% SDS Polyacrylamide gels (Inveitrogen) were transferred to Pure Nitrocellulose membrane (BioRed, Hercules, Calif.). The membranes were blocked with 5% milk in TBST buffer and incubated with anti-c-Rel, anti-p65, anti-p50, anti-ICSBP or anti-PU-1 antibody (all the antibodies were purchased from Santa Cruz) at a dilution of 1:500 for 1 h at room temperature or overnight at 4C. […]
Of the transcription factors that have been analyzed, two factors, ICSBP and c-Rel, seem to be affected by Compound 4/Compound 50 treatment. […]

[2] = tested on: ICSBP; test: ICSBP expression (Western blot); format: cell-based; conditions: of the transcription factors analyzed
Experimental: The 10% SDS Polyacrylamide gels (Inveitrogen) were transferred to Pure Nitrocellulose membrane (BioRed, Hercules, Calif.). The membranes were blocked with 5% milk in TBST buffer and incubated with anti-c-Rel, anti-p65, anti-p50, anti-ICSBP or anti-PU-1 antibody (all the antibodies were purchased from Santa Cruz) at a dilution of 1:500 for 1 h at room temperature or overnight at 4C. The membranes were washed and incubated with Horseradish Peroxidase-conjugated anti-rabbit IgG or anti-mouse IgG (Amersham, England) at a dilution of 1:2000 at room temperature for 1 h.
Of the transcription factors that have been analyzed, two factors, ICSBP and c-Rel, seem to be affected by Compound 4/Compound 50 treatment. ICSBP binds indirectly to the Ets-2 site. The primary NF-κB trans-activator for IL-12 is the c-Rel/p50 heterodimer. Other dimers (p65/p50 and p50/p50) either lack activity or have inhibitory functions. Thus, c-Rel plays a role in IL-12 transcription as a result of both activation through NF-κB and its interaction with ICSBP. […] The membranes were blocked with 5% milk in TBST buffer and then incubated with anti-c-Rel, anti-p65, anti-p50, anti-ICSBP or anti-PU-1 antibody (all the antibodies were purchased from Santa Cruz) at a dilution of 1:500 for 1 h at room temperature or overnight at 4° C. The membranes were washed and incubated with Horseradish Peroxidase-conjugated anti-rabbit IgG or anti-mouse IgG (Amersham, England) at a dilution of 1:2000 at room temperature for 1 h.
ICSBP, whose expression was reduced by Compound 50, was over-expressed using co-transfection with the IL-12 promoter-Luc report system. The over-expression construct of ICSBP was generated by PCR from cDNA of human PBMC using primers as follow: ICSBP-exp-F: 5′-[…]-3′ (SEQ ID NO:1) and ICSBP-exp-R: 5′-[…]-3′ (SEQ ID NO:2), the resulting PCR products was ligated to pCI vector (Promega).

transcription factor c-Rel affected by treatment [1]: affected
Compound: C(=N\Nc1nc(OCCc2ccccn2)nc(N2CCOCC2)n1)/c1c[nH]c2ccccc12 [Compound 4]
transcription factor ICSBP affected by treatment [2]: affected
